We go through 46 molecules from ChEMBL document CHEMBL3745664, “Synthesis, biological evaluation and QSAR studies of diarylpentanoid analogues as potential nitric oxideinhibitors” (Medchemcomm, 2015).

In general, inhibition refers to the drop in the measured response relative to a control, in per cent.

Series [1] relates to RAW264.7. Put plainly: Antiinflammatory activity in mouse RAW264.7 cells assessed as inhibition of LPS/IFN-gamma-stimulated nitric oxide production at 50 uM after 17 hrs by Griess assay. It is filed as functional. The note with it: RAW264.7, 17 h.
In series [2] the test system is RAW264.7. The series is described as follows: Cytotoxicity against mouse RAW264.7 cells by MTT assay. It is filed as cell-based.
Series [3] has as its system RAW264.7. Put plainly: Antiinflammatory activity in mouse RAW264.7 cells assessed as inhibition of LPS/IFN-gamma-stimulated nitric oxide production after 17 hrs by Griess assay. The note with it: RAW264.7, 17 h. Type of series: functional, cell-based. On the technique in general: Nitrite, measured by Griess reagent, commonly stands in for NO production.
Series [4] in a line: Chemical stability of the compound in phosphate buffer at 20 uM at pH 7 at 25 degC by UV-visible spectrophotometric analysis. The note with it: pH 7, 20 µM. It is filed as physicochemical.
The nature of series [5]: Chemical stability of the compound in phosphate buffer at 20 uM at pH 12.7 at 25 degC by UV-visible spectrophotometric analysis. It is filed as physicochemical. The note with it: pH 12.7, 20 µM.
Series [6] is described as follows: Chemical stability of the compound in phosphate buffer at 20 uM at pH 2.4 at 25 degC by UV-visible spectrophotometric analysis. Type of series: physicochemical. The note with it: pH 2.4, 20 µM.

In the case of `COc1ccc(C(=O)/C=C/C=C/c2ccc(Cl)cc2)cc1`, the inhibition at 50 µM in series [1] came out at 45.4%. Also, the IC50 is 80.2 µM in series [2], 70.5 µM in series [3] (read-out: IC50) and 70.5 µM in series [3] (read-out: pIC50 (converted)).
Regarding `COc1ccc(/C=C/C=C/C(=O)c2cc(C)sc2C)cc1`, the inhibition at 50 µM in series [1] came out at 44.8%.
For the molecule `COc1ccc(C(=O)/C=C/C=C/c2ccc(N(C)C)cc2)cc1`, the inhibition at 50 µM in series [1] stood at 54.5%. The IC50 in series [2] was more than 100 µM; in series [3] (read-out: IC50), 77.4 µM; in series [3] (read-out: pIC50 (converted)), 77.4 µM.
As to `COc1ccc(/C=C/C=C/C(=O)c2cc(OC)c(O)c(OC)c2)cc1`, in series [1], the inhibition at 50 µM was found to be 89.4%. Besides, the IC50 in series [2] was 58.6 µM; in series [3] (read-out: IC50), 21.5 µM; in series [3] (read-out: pIC50 (converted)), 21.4 µM.
On the same counts, the results for `COc1ccc(/C=C/C=C/C(=O)c2ccccc2)cc1` are 77.4%, more than 100 µM, 45.8 µM and 45.8 µM.
`O=C(/C=C/C=C/c1ccccc1)c1ccc(F)cc1`: the inhibition at 50 µM in series [1] turned out to be 33.1%.
Consider `COc1ccc(/C=C/C=C/C(=O)c2ccc(O)c(Cl)c2)cc1`, for which, in series [1], the inhibition at 50 µM worked out at 98.2%. Further, the IC50 in series [2] is 67.6 µM; in series [3] (read-out: IC50) it was 23.5 µM; in series [3] (read-out: pIC50 (converted)), 23.4 µM.
`O=C(/C=C/C=C/c1ccc(Cl)cc1)c1ccc(Cl)cc1`: in series [1], the inhibition at 50 µM came out at 31.2%.
On to `COc1ccc(/C=C/C=C/C(=O)c2ccco2)cc1`, for which, in series [1], the inhibition at 50 µM came to 61.5%. Moreover, the IC50 is 76.6 µM in series [2], 27.5 µM in series [3] (read-out: IC50) and 27.5 µM in series [3] (read-out: pIC50 (converted)).
On to `CN(C)c1ccc(/C=C/C=C/C(=O)c2ccco2)cc1`, for which, in series [1], the inhibition at 50 µM was 56.9%. The IC50 in series [2] was more than 100 µM; in series [3] (read-out: IC50), 116 µM.
Regarding `CN(C)c1ccc(/C=C/C=C/C(=O)c2ccc(F)cc2)cc1`, the inhibition at 50 µM in series [1] is 71.5%. For the same molecule, the values for the IC50 in series [2], in series [3] (read-out: IC50) and in series [3] (read-out: pIC50 (converted)) were more than 100 µM, 63.8 µM and 63.8 µM, respectively.
As to `CN(C)c1ccc(/C=C/C=C/C(=O)c2cccs2)cc1`, the inhibition at 50 µM in series [1] turned out to be 32.4%.
Regarding `COc1ccc(/C=C/C=C/C(=O)c2ccc(OC)cc2OC)cc1`, in series [1], the inhibition at 50 µM is less than 10%.
For `O=C(/C=C/C=C/c1ccccc1)c1cc(Cl)cc(Cl)c1O`, in series [1], the inhibition at 50 µM is 19.6%.
`COc1cc(/C=C/C(=O)CC(=O)/C=C/c2ccc(O)c(OC)c2)ccc1O` [CURCUMIN]: the Stability result is listed as “Unstable” in series [4], “Stable” in series [5] and “Stable” in series [6]. Also, in series [1], the inhibition at 50 µM was determined as 99.3%. Besides, the IC50 in series [2] was more than 100 µM.
Regarding `COc1ccc(C(=O)/C=C/C=C/c2ccc(O)cc2)c(O)c1`, the inhibition at 50 µM in series [1] turned out to be 93.4%. Further, the IC50 in series [2] is more than 100 µM; in series [3] (read-out: IC50) it was 27.1 µM; in series [3] (read-out: pIC50 (converted)), 27.1 µM.
Take `O=C(/C=C/C=C/c1ccccc1)c1cc(Br)ccc1O`: the inhibition at 50 µM in series [1] is less than 10%.
As to `O=C(/C=C/C=C/c1ccccc1)c1cccc(O)c1`, the inhibition at 50 µM in series [1] was 104%. The IC50 in series [2] is 48.7 µM; in series [3] (read-out: IC50), 26.1 µM; in series [3] (read-out: pIC50 (converted)), 26.1 µM.
As to `COc1ccc(/C=C/C=C/C(=O)c2ccc(C)s2)cc1`, the inhibition at 50 µM in series [1] turned out to be 41.7%.
`O=C(/C=C/C=C/c1ccc(Cl)cc1)c1cc(Cl)ccc1O`: the inhibition at 50 µM in series [1] is less than 10%.
As for `O=C(/C=C/C=C/c1ccc(O)cc1)c1ccc(O)cc1O`, the inhibition at 50 µM in series [1] is 82.1%. The values for the IC50 in series [2], in series [3] (read-out: IC50) and in series [3] (read-out: pIC50 (converted)) were more than 100 µM, 27.2 µM and 27.2 µM, respectively.
With `COc1ccc(/C=C/C=C/C(=O)c2ccc[nH]2)cc1`, the inhibition at 50 µM in series [1] is 95.8%. For the same molecule, the IC50 in series [2] is more than 100 µM; in series [3] (read-out: IC50) it was 57.4 µM; in series [3] (read-out: pIC50 (converted)), 57.4 µM.
Take `Cc1ccc(/C=C/C=C/C(=O)c2ccccc2)cc1`: the inhibition at 50 µM in series [1] was 73.7%.
For the molecule `O=C(/C=C/C=C/c1ccc(O)cc1)c1ccc(F)cc1`, the inhibition at 50 µM in series [1] turned out to be 110%. Also, the IC50 in series [2] was 45.5 µM; in series [3] (read-out: IC50), 14.8 µM; in series [3] (read-out: pIC50 (converted)), 14.8 µM.
With `Cc1cc(C(=O)/C=C/C=C/c2ccccc2)c(C)o1`, the inhibition at 50 µM in series [1] came out at 84.6%. For the same molecule, the IC50 in series [2] was more than 100 µM; in series [3] (read-out: IC50), 59 µM; in series [3] (read-out: pIC50 (converted)) it was 58.9 µM.
In the case of `COc1ccc(C(=O)/C=C/C=C/c2ccccc2)cc1`, the inhibition at 50 µM in series [1] came out at 51.1%. In addition, the IC50 was more than 100 µM in series [2], 71.2 µM in series [3] (read-out: IC50) and 71.1 µM in series [3] (read-out: pIC50 (converted)).
`COc1cc(/C=C/C=C/C(=O)c2ccc(F)cc2)cc(OC)c1O`: in series [1], the inhibition at 50 µM stood at 76.7%. For the same molecule, the IC50 was 5 µM in series [2], 39.3 µM in series [3] (read-out: IC50) and 39.3 µM in series [3] (read-out: pIC50 (converted)).
As to `COc1ccc(/C=C/C=C/C(=O)c2ccc(C)cc2)cc1`, the inhibition at 50 µM in series [1] is 42.2%.
With `COc1ccc(/C=C/C=C/C(=O)c2cccs2)cc1`, in series [1], the inhibition at 50 µM amounted to 69.6%. The results for the IC50 in series [2], in series [3] (read-out: IC50) and in series [3] (read-out: pIC50 (converted)) were 68.5 µM, 47.9 µM and 47.9 µM, respectively.
Regarding `O=C(/C=C/C=C/c1ccccc1)c1ccc(Cl)cc1`, the inhibition at 50 µM in series [1] is less than 10%.
Regarding `COc1cc(/C=C/C=C/C(=O)c2ccccc2)cc(OC)c1O`, in series [1], the inhibition at 50 µM was 64.1%. In addition, the IC50 in series [2] was 28.7 µM; in series [3] (read-out: IC50) it was 42 µM; in series [3] (read-out: pIC50 (converted)), 42 µM.
As for `O=C(/C=C/C=C/c1ccccc1)c1ccccc1O`, the inhibition at 50 µM in series [1] was less than 10%.
On the same count and under the same terms, under `CN(C)c1ccc(/C=C/C=C/C(=O)c2ccccc2O)cc1` stands 16.4%; under `COc1ccc(/C=C/C=C/C(=O)c2cc(Cl)ccc2O)cc1`, 26.4%.
Consider `Cc1ccc(C(=O)/C=C/C=C/c2ccc(O)cc2)s1`, for which the Stability entry in series [4], in series [5] and in series [6] was “Stable” in each case. Besides, the inhibition at 50 µM in series [1] is 103%. Besides, the IC50 is 28.3 µM in series [2], 10.2 µM in series [3] (read-out: IC50) and 10.2 µM in series [3] (read-out: pIC50 (converted)).
In the case of `O=C(/C=C/C=C/c1ccc(O)cc1)c1ccc(O)cc1`, in series [1], the inhibition at 50 µM came out at 102%. In addition, the IC50 in series [2] was more than 100 µM; in series [3] (read-out: IC50), 16.4 µM; in series [3] (read-out: pIC50 (converted)), 16.4 µM.
In the case of `COc1ccc(/C=C/C=C/C(=O)c2ccc(OC)cc2)cc1`, in series [1], the inhibition at 50 µM was found to be 41.6%.
As to `COc1ccc(/C=C/C=C/C(=O)c2cc(Cl)cc(Cl)c2O)cc1`, in series [1], the inhibition at 50 µM was less than 10%.
Take `CN(C)c1ccc(/C=C/C=C/C(=O)c2ccccc2)cc1`: the inhibition at 50 µM in series [1] is 51.2%. For the same molecule, the figures for the IC50 in series [2], in series [3] (read-out: IC50) and in series [3] (read-out: pIC50 (converted)) were more than 100 µM, 73.6 µM and 73.5 µM, respectively.
As to `O=C(/C=C/C=C/c1ccccc1)c1ccccc1`, the inhibition at 50 µM in series [1] was 66.8%. The results for the IC50 in series [2], in series [3] (read-out: IC50) and in series [3] (read-out: pIC50 (converted)) were 44.3 µM, 44.6 µM and 44.6 µM, respectively.
Take `COc1ccc(/C=C/C=C/C(=O)c2ccc(F)cc2)cc1`: in series [1], the inhibition at 50 µM is 40%.
Consider `O=C(/C=C/C=C/c1ccccc1)c1cc(Cl)ccc1O`, for which the inhibition at 50 µM in series [1] was less than 10%.
For `COc1ccc(/C=C/C=C/C(=O)c2cc(C)oc2C)cc1`, the inhibition at 50 µM in series [1] came out at 59.7%. For the same molecule, the IC50 was more than 100 µM in series [2], 39.8 µM in series [3] (read-out: IC50) and 45.7 µM in series [3] (read-out: pIC50 (converted)).
As to `COc1ccc(/C=C/C=C/C(=O)c2ccc(O)cc2F)cc1`, in series [1], the inhibition at 50 µM is 102%. Besides, the figures for the IC50 in series [2], in series [3] (read-out: IC50) and in series [3] (read-out: pIC50 (converted)) were 60.3 µM, 21.8 µM and 21.8 µM, respectively.
With `Cc1ccc(C(=O)/C=C/C=C/c2ccccc2)s1`, in series [1], the inhibition at 50 µM came out at 52.6%. Further, the IC50 was more than 100 µM in series [2], 68.6 µM in series [3] (read-out: IC50) and 68.5 µM in series [3] (read-out: pIC50 (converted)).
As for `COc1ccc(/C=C/C=C/C(=O)c2ccc(OC)c(O)c2)cc1`, the inhibition at 50 µM in series [1] came out at 100%. The values for the IC50 in series [2], in series [3] (read-out: IC50) and in series [3] (read-out: pIC50 (converted)) were 28.4 µM, 16.3 µM and 16.3 µM, respectively.
